Measured values from PMC11042424, “Development of a First-in-Class RIPK1 Degrader to Enhance Antitumor Immunity” (Research Square, 2024).

Legend:
[1] = molecular target: T1, nLuc-RIPK1 fusion protein (Homo sapiens, UniProt Q13546); test: NanoBRET based in-cell RIPK1 target engagement
T1 construct: expressed in transfected cells
T1 sequence (Q13546 1-671): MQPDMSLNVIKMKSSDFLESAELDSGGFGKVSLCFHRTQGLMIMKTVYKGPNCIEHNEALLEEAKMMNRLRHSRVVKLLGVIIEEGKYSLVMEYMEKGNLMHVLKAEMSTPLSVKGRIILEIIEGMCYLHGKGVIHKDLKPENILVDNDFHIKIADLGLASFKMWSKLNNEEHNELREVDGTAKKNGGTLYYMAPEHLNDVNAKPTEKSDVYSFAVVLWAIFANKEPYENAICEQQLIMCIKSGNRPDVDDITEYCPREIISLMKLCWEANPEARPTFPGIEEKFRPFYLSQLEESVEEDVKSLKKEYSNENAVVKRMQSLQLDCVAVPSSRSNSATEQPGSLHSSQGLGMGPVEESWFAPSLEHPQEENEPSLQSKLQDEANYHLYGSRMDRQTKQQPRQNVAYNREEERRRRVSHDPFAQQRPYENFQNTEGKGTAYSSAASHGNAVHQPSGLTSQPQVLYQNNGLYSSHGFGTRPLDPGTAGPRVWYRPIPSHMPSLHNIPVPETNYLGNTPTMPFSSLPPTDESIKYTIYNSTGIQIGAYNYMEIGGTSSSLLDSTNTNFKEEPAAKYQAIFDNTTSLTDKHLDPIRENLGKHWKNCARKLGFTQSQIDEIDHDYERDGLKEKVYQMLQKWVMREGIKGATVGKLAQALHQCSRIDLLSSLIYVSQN
Method: Figure 2 LD4172, a RIPK1 PROTAC, induces potent and highly specific degradation of RIPK1 in a panel of cell lines. A, Chemical structures of RIPK1 PROTAC, LD4172, and its negative control, LD4172-NC. […] B, Quantification of RIPK1 levels in both Jurkat and B16F10 cells treated with LD4172 at indicated concentrations for 24 h, followed by Western blotting. C, DC50 and Dmax of LD4172 in various human and mouse cell lines. DC50, the drug concentration causing 50% protein degradation; Dmax, the maximum level of protein degradation. D, RIPK1 degradation kinetics induced by LD4172 treatment (1 μM) and resynthesis kinetics upon washout of LD4172 in both Jurkat and B16F10 cells. E, Quantification of D. The degradation half-life of RIPK1 induced by LD4172 (1 μM) is <2 h in Jurkat and B16F10 cells. […] F, NanoBRET based in-cell RIPK1 target engagement. HEK293 cells were transfected with a plasmid expressing nLuc-RIPK1 fusion protein for 24 h, followed by incubating with a RIPK1 NanoBRET tracer (500 nM) and different concentrations of LD4172 and LD4172-NC (n=3). G, Time-resolved fluorescence resonance energy transfer (TR-FRET) based biochemical binding assay for RIPK1. GST-tagged human RIPK1 (1 nM), Tb-labeled anti-GST antibody (0.3 nM), a RIPK1 TR-FRET tracer (350 nM) and different concentrations of LD4172 (n=3) were incubated for 2 hours, followed by TR-FRET measurements with an excitation wavelength at 340 nm and emission wavelengths at 495 and 520 nm. H, NanoBRET based in-cell assay for ternary complex formation. HEK293T cells were co-transfected with nLuc-RIPK1 and VHL-HaloTag plasmids for 24 h, followed by treatment with indicated concentrations of LD4172 or LD4172-NC (n=3). I, LD4172 induced RIPK1 degradation depends on ternary complex formation, neddylation and proteasome activity. Representative immunoblots of RIPK1 in both Jurkat and B16F10 cells. Cells were treated with RIPK1 inhibitor (T2I), VHL ligand, a neddylation inhibitor (MLN4924) or a proteasome inhibitor (Carfilzomib) at indicated concentrations for 4 hours, followed by LD4172 treatment for 4 hours. J, Proteome profiling of LD4172 induced protein degradation. MDA-MB- 231 cells were treated with LD4172 (200 nM) or LD4172-NC (200 nM) for 6 h (n=3). In total, ~10,000 proteins were quantified in the proteomics experiment. […] Blue dots represent kinases that are inhibited by the warhead of LD4172 but not degraded by LD4172.
To elucidate the formation of a binary complex during RIPK1 degradation, we developed a competitive NanoBRET (Nano-Bioluminescence Resonance Energy transfer)-based target engagement (TE) assay to quantify the binding between RIPK1 and LD4172 in cells[12],[13]. First, we developed a RIPK1 tracer by conjugating the LD4172 warhead T2I with a BODIPY-590 fluorescent dye, dubbed T2–590 (refer to Supporting Information for details). The dissociation equilibrium constant (Kd) between the tracer and RIPK1 was determined to be 0.5 μM by titrating the tracer in HEK293T cells expressing a nLuc-RIPK1 fusion protein. […] This is usually expected, considering that the large molecular weight of LD4172 may lead to poor cellular permeability.

[2] = molecular target: T2, RIPK1 and VHL (Homo sapiens, UniProt P40337+Q13546); test: NanoBRET live-cell ternary complex assay; assay type: cell-based; settings: HEK293 cells co-transfected with nLuc-RIPK1 and VHL-Halo
T2 construct: Addgene backbone 87075 (RIPK1 vector, made in house) N273A; host or cells: HEK293T
Method: Figure 2 LD4172, a RIPK1 PROTAC, induces potent and highly specific degradation of RIPK1 in a panel of cell lines. A, Chemical structures of RIPK1 PROTAC, LD4172, and its negative control, LD4172-NC. […] B, Quantification of RIPK1 levels in both Jurkat and B16F10 cells treated with LD4172 at indicated concentrations for 24 h, followed by Western blotting. C, DC50 and Dmax of LD4172 in various human and mouse cell lines. DC50, the drug concentration causing 50% protein degradation; Dmax, the maximum level of protein degradation. D, RIPK1 degradation kinetics induced by LD4172 treatment (1 μM) and resynthesis kinetics upon washout of LD4172 in both Jurkat and B16F10 cells. […] G, Time-resolved fluorescence resonance energy transfer (TR-FRET) based biochemical binding assay for RIPK1. […] In total, ~10,000 proteins were quantified in the proteomics experiment. […]
Human RIPK1 cDNA insert was cloned into pLenti6.2-ccdB-nLuc plasmid (87075, Addgene, a kind gift from Taipale Lab) using gateway cloning kit (11791020, Thermo) and standard protocol to obtain pLenti6.2-RIPK1-nLuc fusion vector. […] Immediately before reading the plate, prepare 4x concentrated NanoGlo nLuc substrate (N157, Promega) was prepared by diluting the stock into Opti-MEM 1,000-fold, and the NanoGlo substrate was then added into each well to bring the final concentration to 1x. […]

[3] = molecular target: T3, RIPK1 (Mus musculus, UniProt Q60855); test: RIPK1 degradation in B16F10 mouse melanoma cells, Western blotting; assay type: cell-based; set-up: Quantification of RIPK1 levels in both Jurkat and B16F10 cells; endogenous in cells; host or cells: B16F10; settings: pre-treatment 4 hours, then LD4172 4 hours
T3 sequence (Q60855 1-656): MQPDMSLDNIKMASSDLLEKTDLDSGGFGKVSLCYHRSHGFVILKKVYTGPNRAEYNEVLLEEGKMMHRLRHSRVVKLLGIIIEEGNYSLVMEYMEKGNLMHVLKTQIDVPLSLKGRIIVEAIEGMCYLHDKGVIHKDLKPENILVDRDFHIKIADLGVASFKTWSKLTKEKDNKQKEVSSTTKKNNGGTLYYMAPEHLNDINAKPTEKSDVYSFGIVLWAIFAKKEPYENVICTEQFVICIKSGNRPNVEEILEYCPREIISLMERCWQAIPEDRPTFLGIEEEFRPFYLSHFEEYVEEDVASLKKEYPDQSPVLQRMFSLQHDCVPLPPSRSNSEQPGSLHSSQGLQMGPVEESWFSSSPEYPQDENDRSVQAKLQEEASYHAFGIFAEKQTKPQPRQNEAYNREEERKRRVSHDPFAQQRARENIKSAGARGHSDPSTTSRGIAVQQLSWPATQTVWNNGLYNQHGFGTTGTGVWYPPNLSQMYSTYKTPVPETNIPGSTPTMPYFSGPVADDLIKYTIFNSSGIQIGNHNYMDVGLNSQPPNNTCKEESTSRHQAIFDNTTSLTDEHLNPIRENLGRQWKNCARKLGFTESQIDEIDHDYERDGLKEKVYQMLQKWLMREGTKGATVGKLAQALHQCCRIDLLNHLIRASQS
Text: (§1) Figure 1 Design and screen of RIPK1 PROTACs. A, Chemical structure and docking modeling of type II inhibitor 1 with the kinase domain of RIPK1 (PDB: 4NEU). The group exposed to solvent region is highlighted with yellow circle. B, Chemical structure and co-crystal structure of type III inhibitor 2 in complex with RIPK1 (PDB: 6R5F). The solventexposed group of inhibitor 2 is highlighted with yellow circle. C, A small library design of RIPK1 PROTACs. Either Type II inhibitor 1 or type III inhibitor 2 is conjugated with various E3 ligase ligands or adamantane tag to generate a small library of RIPK1 PROTACs. D, Quantification of RIPK1 levels in Jurkat cells treated with indicated compounds for 24 h at 0, 0.1, 1 and 10 μM, followed by Western blotting. E, Quantification of D. F, Quantification of RIPK1 levels in both Jurkat and B16F10 cells treated with type II inhibitor-based PROTACs with different linker lengths for 24 h, followed by Western blotting. G, Quantification of F.
(§2) Figure 2 LD4172, a RIPK1 PROTAC, induces potent and highly specific degradation of RIPK1 in a panel of cell lines. […] B, Quantification of RIPK1 levels in both Jurkat and B16F10 cells treated with LD4172 at indicated concentrations for 24 h, followed by Western blotting. […] G, Time-resolved fluorescence resonance energy transfer (TR-FRET) based biochemical binding assay for RIPK1. […]

[4] = molecular target: T4, RIPK1 (Homo sapiens, UniProt Q13546); test: RIPK1 degradation in Jurkat cells, Western blotting; assay type: cell-based; settings: pre-treatment 4 hours, then LD4172 4 hours
T4 construct: Quantification of RIPK1 levels in Jurkat cells treated with indicated compounds for 24 h; endogenous in cells; host or cells: Jurkat
T4 sequence (Q13546 1-671): T1 sequence (Q13546 1-671)
Text: as §1, §2

| Compound | target engagement (TE) compared with LD4172 [1] | IC50 ([1]; HEK293 cells, tracer 500 nM, n=3, read-out: IC50 (nM), Fig. 2F) [nM] | ternary complex formation, NanoBRET between RIPK1 and VHL [2] | effect on RIPK1 degradation by LD4172 [3] | effect on RIPK1 degradation by LD4172 [4] |
| --- | --- | --- | --- | --- | --- |
| Cc1ncsc1-c1ccc([C@H](C)NC(=O)[C@H]2C[C@H](O)CN2C(=O)[C@@H](NC(=O)CCCCCCCCCCC(=O)NCCCn2cc(-c3ccc4c(c3)CCN4C(=O)Cc3cccc(OC(F)(F)F)c3)c3c(N)ncnc32)C(C)(C)C)cc1 [LD4172-NC] | TE similar to that of LD4172 | 1850 | not | – | – |
| NS(=O)(=O)OC[C@@H]1C[C@@H](n2ccc3c(N[C@H]4CCc5ccccc54)ncnc32)C[C@@H]1O [MLN4924] | – | – | – | reversed | reversed |
| CC(C)C[C@H](NC(=O)[C@H](CCc1ccccc1)NC(=O)CN1CCOCC1)C(=O)N[C@@H](Cc1ccccc1)C(=O)N[C@@H](CC(C)C)C(=O)[C@@]1(C)CO1 [carfilzomib] | – | – | – | reversed | reversed |
